Patent US6727237B2, “Inhibitors of bacterial NAD synthetase” (priority 1998, dated 2004)
pIC50: −log10 of the molar value. Read-outs that look alike come from different tables or passages of the source.

Biological target: T1, bacterial NAD synthetase enzyme (Bacillus subtilis, UniProt P08164)
T1 sequence (P08164 2-272 limits assumed): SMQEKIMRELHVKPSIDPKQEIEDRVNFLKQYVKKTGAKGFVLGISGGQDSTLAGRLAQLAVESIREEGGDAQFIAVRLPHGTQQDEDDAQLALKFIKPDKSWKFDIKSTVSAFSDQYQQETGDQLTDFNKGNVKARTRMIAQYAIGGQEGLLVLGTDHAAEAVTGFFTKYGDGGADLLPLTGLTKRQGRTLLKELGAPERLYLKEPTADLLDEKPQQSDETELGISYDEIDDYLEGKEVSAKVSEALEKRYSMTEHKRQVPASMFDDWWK
Assay: biochemical
Type: biochemical

[1] = compound at 0.2 mM (Table 312A)
[2] = compound at 0.2 mM (Table 312B)

C[n+]1ccc(C(=O)OCCCCc2cc3cc(Oc4ccccc4)ccc3[nH]2)cc1 [Compound 901]
% Inhibition (compound at 0.25 mM): 32.8%

COc1ccc2[nH]c(CCCCCCCC[n+]3ccccc3)cc2c1 [Compound 377]
% Inhibition [1]: 30.12%

FC(F)(F)c1ccc2cc(CCCCCCCC[n+]3ccccc3)[nH]c2c1 [Compound 293]
% Inhibition [1]: 87.66%

C[N+](C)(C)c1cccc(C(=O)OCCCCCCCc2cc3cc(Oc4ccccc4)ccc3[nH]2)c1 [Compound 872]
pIC50: 4.30 | inhibition at 100 µM: 98.3%

FC(F)(F)c1ccc2[nH]c(CCC[n+]3ccccc3)cc2c1 [Compound 360]
% Inhibition [1]: 3.46%

Fc1cc(F)c2[nH]c(CCCC[n+]3ccc4ccccc4c3)cc2c1 [Compound 517]
% Inhibition [1]: 34.72%

c1ccc(Oc2ccc3[nH]c(CCCCCCC[n+]4cccc5ccccc54)cc3c2)cc1 [Compound 460]
% Inhibition [1]: 4.17%

FC(F)(F)c1ccc2cc(CCCC[n+]3ccccc3)[nH]c2c1 [Compound 715]
% Inhibition (compound at 0.1 mM (Table 314)): 20.73%

CC(=O)c1ccc2[nH]c(CCCCOC(=O)Cc3ccc[n+](C)c3)cc2c1 [Compound 937]
% Inhibition (compound at 0.25 mM): 88.8%

CC(C)c1ccc2[nH]c(CCCCOC(=O)c3cc[n+](C)cc3)cc2c1 [Compound 904]
% Inhibition (compound at 0.1 mM (Table 314)): 47.68%

O=[N+]([O-])c1cc([N+](=O)[O-])c2[nH]c(CCCCCCCC[n+]3ccc4ccccc4c3)cc2c1 [Compound 527]
% Inhibition [1]: 73.78%

C[N+](C)(C)c1ccc(CC(=O)OCCCCCCCCOc2ccccc2N2CCOCC2)cc1 [Compound 1093]
% Inhibition [2]: 66%

O=[N+]([O-])c1cc([N+](=O)[O-])c2[nH]c(CCCCC[n+]3ccccc3)cc2c1 [Compound 308]
% Inhibition [1]: 33.71%

O=C(O)c1ccc2[nH]c(CCCC[n+]3cccc4ccccc43)cc2c1 [Compound 493]
% Inhibition [1]: 9.12%

O=C(OCCCCCCCCOc1cccc(N2CCOCC2)c1)c1cccnc1 [Compound 1018]
% Inhibition [2]: 17%

COC(=O)c1cc2cc(OCc3ccccc3)ccc2n1CCCCCCCCOC(=O)Cc1ccc(N(C)C)cc1 [Compound 965]
% Inhibition (compound at 0.1 mM (Table 314)): 8.48%

COC(=O)c1cc2cc(OCc3ccccc3)ccc2n1CCCCCCCOC(=O)c1ccc(CN(C)C)cc1 [Compound 1096]
pIC50 (NAD synthetase enzyme inhibition, read-out: IC50 of Compounds): 4.16 | % Inhibition [2]: 140%

COC(=O)c1ccc2[nH]c(CCCC[n+]3ccc4ccccc4c3)cc2c1 [Compound 595]
% Inhibition [1]: 17.94%

C[n+]1cccc(C(=O)OCCCCCCCCOc2cccc([N+](=O)[O-])c2)c1 [Compound 1065]
pIC50: 4.43 | inhibition at 200 µM: 81%

O=C(c1ccccc1)c1ccc2[nH]c(CCC[n+]3ccccc3)cc2c1 [Compound 354]
% Inhibition [1]: 2.96%

O=C(c1ccccc1)c1ccc2[nH]c(CCCCCCCC[n+]3ccc4ccccc4c3)cc2c1 [Compound 575]
% Inhibition [1]: 42.01%

C[n+]1ccc(C(=O)OCCCCCCCCc2cc3cc(Oc4ccccc4)ccc3[nH]2)cc1 [Compound 903]
% Inhibition (compound at 0.25 mM): 95.5%

C[n+]1cccc(C(=O)OCCCCCCCCCn2ccc3ccccc32)c1 [Compound 970]
pIC50: 4.26 | inhibition at 200 µM: 96.7%

CC(C)c1ccc2[nH]c(CCCCOC(=O)c3ccc[n+](C)c3)cc2c1 [Compound 919]
% Inhibition (compound at 0.25 mM): 90.2%

CC(=O)c1ccc2[nH]c(CCC[n+]3cccc4ccccc43)cc2c1 [Compound 474]
% Inhibition [1]: 2.45%

C[n+]1cccc(C(=O)OCCCCCCCCOc2ccccc2C(N)=O)c1 [compound 1060]
% Inhibition [2]: 19%

c1ccc(Oc2ccc3[nH]c(CCCCCCC[n+]4ccccc4)cc3c2)cc1 [Compound 352]
% Inhibition (compound at 0.1 mM (Table 314)): 32.69%

Cc1ccc2[nH]c(CCCC[n+]3ccc4ccccc4c3)cc2c1 [Compound 511]
% Inhibition [1]: 11.02%

C[N+](C)(C)c1ccc(CC(=O)OCCCCCCCCn2ccc3cc(NC(=O)c4ccccc4)ccc32)cc1 [Compound 1104]
pIC50: 4.21

C[N+](C)(C)c1ccc(CC(=O)OCCCCCCCCn2ccc3ccccc32)cc1 [Compound 981]
pIC50: 4.22 | inhibition at 200 µM: 95.2%

O=[N+]([O-])c1ccc2[nH]c(CCCCC[n+]3ccccc3)cc2c1 [Compound 332]
% Inhibition (compound at 0.1 mM (Table 314)): 12.27%

Fc1ccc2[nH]c(CCCCCCC[n+]3cccc4ccccc43)cc2c1 [Compound 454]
% Inhibition [1]: 7.95%

CN(C)c1ccc(CC(=O)OCCCCCCCCOc2ccccc2N2CCCC2)cc1 [Compound 1046]
% Inhibition [2]: 2%

Fc1cc(F)c2[nH]c(CCCC[n+]3ccccc3)cc2c1 [Compound 301]
% Inhibition [1]: 6.12%

CC(C)c1ccc2[nH]c(CCCCCCCCOC(=O)c3cc[n+](C)cc3)cc2c1 [Compound 906]
pIC50: 4.60

CN(C)c1ccc(CC(=O)OCCCCCCCCOc2ccccc2N2CCOCC2)cc1 [Compound 1047]
% Inhibition [2]: 45%

O=C(O)c1ccc2[nH]c(CCC[n+]3ccc4ccccc4c3)cc2c1 [Compound 600]
% Inhibition [1]: 3.10%

C[n+]1cccc(C(=O)OCCCCCCCCOc2ccc(N3C(=O)c4ccccc4C3=O)cc2)c1 [compound 1071]
% Inhibition [2]: 55%

O=[N+]([O-])c1cc([N+](=O)[O-])c2[nH]c(CCCCCCCC[n+]3cccc4ccccc43)cc2c1 [Compound 419]
% Inhibition [1]: 24.28%

C[N+](C)(C)c1cccc(C(=O)OCCCCCCCCc2cc3cc(C(=O)c4ccccc4)ccc3[nH]2)c1 [Compound 882]
pIC50: 4.05 | inhibition at 100 µM: 94.5%

C[N+](C)(C)c1cccc(C(=O)OCCCCCCCCc2cc3ccc(C(F)(F)F)cc3[nH]2)c1 [Compound 870]
% Inhibition (compound at 0.25 mM): 63.1%

FC(F)(F)c1ccc2cc(CCCC[n+]3ccccc3)[nH]c2c1 [Compound 289]
% Inhibition [1]: 9.28%

COC(=O)c1ccc2[nH]c(CCCCCCCC[n+]3ccccc3)cc2c1 [Compound 383]
% Inhibition [1]: 2.76%

Fc1ccc2[nH]c(CCCCCCC[n+]3ccccc3)cc2c1 [Compound 346]
% Inhibition (compound at 0.1 mM (Table 314)): 42.57%

C[N+](C)(C)c1ccc(C(=O)OCCCCCCCCc2cc3cc(Oc4ccccc4)ccc3[nH]2)cc1 [Compound 888]
% Inhibition (compound at 0.25 mM): 99.0%

CC(=O)c1ccc2[nH]c(CCCCCCCC[n+]3ccccc3)cc2c1 [Compound 371]
% Inhibition [1]: 43.85%

C[N+](C)(C)c1cccc(C(=O)OCCCCCCCc2cc3cc(C(=O)c4ccccc4)ccc3[nH]2)c1 [Compound 881]
% Inhibition (compound at 0.1 mM (Table 314)): 90.89%

CC(=O)c1ccc2[nH]c(CCCCOC(=O)c3cccc([N+](C)(C)C)c3)cc2c1 [Compound 877]
% Inhibition (compound at 0.25 mM): 98.3%

O=C(OCCCCCCn1ccc2ccccc21)c1cccnc1 [Compound 943]
% Inhibition (compound at 0.1 mM (Table 314)): 21.38%

CC(C)c1ccc2[nH]c(CCCCCCCCOC(=O)c3ccc([N+](C)(C)C)cc3)cc2c1 [Compound 891]
pIC50: 4.10 | inhibition at 250 µM: 99.9%

CN(C)c1ccc(CC(=O)OCCCCCCCCOc2ccccc2C=CC(=O)c2ccccc2)cc1 [Compound 1038]
% Inhibition [2]: 22%

C[n+]1cccc(C(=O)OCCCCCCCc2cc3cc(Oc4ccccc4)ccc3[nH]2)c1 [Compound 917]
pIC50: 4.22 | inhibition at 250 µM: 88.9%

CC(=O)c1ccc2[nH]c(CCCCCCCOC(=O)c3ccc(N(C)C)cc3)cc2c1 [Compound 637]
% Inhibition (compound at 0.1 mM (Table 314)): 4.42%

CC(=O)c1ccc2[nH]c(CCCCCCCCOC(=O)c3ccc[n+](C)c3)cc2c1 [Compound 924]
pIC50: 4.60 | inhibition at 100 µM: 97.7%

O=C(OCCCCCCCc1cc2cc(Oc3ccccc3)ccc2[nH]1)c1cccnc1 [Compound 685]
% Inhibition [1]: 7.81%

Fc1cc(F)c2[nH]c(CCCCCCCC[n+]3cccc4ccccc43)cc2c1 [Compound 413]
% Inhibition [1]: 4.76%

CCCCc1ccc2[nH]c(CCCCCCCC[n+]3ccc4ccccc4c3)cc2c1 [Compound 533]
% Inhibition [1]: 24.68%

CC(=O)C=Cc1ccc(OCCCCCCCCOC(=O)Cc2ccc([N+](C)(C)C)cc2)cc1 [Compound 1081]
pIC50: 4.17 | inhibition at 200 µM: 84%

C[N+](C)(C)c1ccc(CC(=O)OCCCCCCCCOc2ccccc2C=CC(=O)c2ccccc2)cc1 [Compound 1086]
pIC50: 4.56 | inhibition at 200 µM: 81%

CC(=O)c1ccc2[nH]c(CCCCCCC[n+]3ccc4ccccc4c3)cc2c1 [Compound 586]
% Inhibition [1]: 2.01%

CCCCc1ccc2[nH]c(CCCC[n+]3cccc4ccccc43)cc2c1 [Compound 421]
% Inhibition [1]: 1.86%

O=C(O)c1ccc2[nH]c(CCC[n+]3ccccc3)cc2c1 [Compound 384]
% Inhibition [1]: 4.10%

C[n+]1cccc(C(=O)OCCCCCCCCOc2ccccc2C(=O)Nc2ccccc2)c1 [compound 3054]
% Inhibition [2]: 86%

Cc1ccc2[nH]c(CCC[n+]3ccc4ccccc4c3)cc2c1 [Compound 510]
% Inhibition [1]: 20.99%

c1ccc(Oc2ccc3[nH]c(CCCC[n+]4ccccc4)cc3c2)cc1 [Compound 349]
pIC50: 4.12 | inhibition at 100 µM: 86.6%

COC(=O)c1cc2cc(OCc3ccccc3)ccc2n1CCCCCCCOC(=O)c1ccc(C[N+](C)(C)C)cc1 [Compound 1097]
pIC50: 4.20 | inhibition at 200 µM: 98%

Fc1ccc2[nH]c(CCCCCCCC[n+]3ccc4ccccc4c3)cc2c1 [Compound 563]
% Inhibition [1]: 22.68%

FC(F)(F)c1ccc2cc(CCCCCC[n+]3cccc4ccccc43)[nH]c2c1 [Compound 399]
% Inhibition [1]: 15.22%

NC(=O)c1ccc(OCCCCCCCCOC(=O)c2cccnc2)cc1 [Compound 1014]
% Inhibition [2]: 14%

O=[N+]([O-])c1ccc2[nH]c(CCCC[n+]3ccccc3)cc2c1 [Compound 712]
% Inhibition [1]: 12.59%

Fc1cc(F)c2[nH]c(CCCCC[n+]3cccc4ccccc43)cc2c1 [Compound 410]
% Inhibition [1]: 8.77%

CCCCc1oc2ccccc2c1C(=O)c1ccc(OCCCOC(=O)c2ccc[n+](C)c2)cc1 [Compound 1064]
pIC50: 4.43 | inhibition at 200 µM: 92%
